Experimental data from ChEMBL document CHEMBL1135020, “5-Bromo (or chloro)-6-azido-5,6-dihydro-2' -deoxyuridine and -thymidine derivatives with potent antiviral activity” (Bioorg Med Chem Lett, 2002).
Activity calls are given as the source filed them. No cut-off for these calls is given here.

How the values were obtained:
Human gammaherpesvirus 4 = assay: In vitro antiviral activity against Epstein Barr virus (EBV) was determined; type: functional, organism-based
Human alphaherpesvirus 1 = assay: In vitro antiviral activity against Herpes simplex virus (HSV-1) was determined; type: functional, organism-based
Human alphaherpesvirus 2 = assay: In vitro antiviral activity against Herpes simplex virus (HSV-2) was determined; type: functional, organism-based
CCRF-CEM [1] = assay: In vitro anti-HIV screen using HIV-1 infected CD4 lymphocytes (CEM cell line), determines cytotoxicity; type: functional, cell-based; conditions: Homo sapiens
NCI-H522 = assay: Test was to evaluate selectivity against individual tumor cell line Non small cell lung cancer (NCI-H522); type: functional; conditions: Homo sapiens
RPMI-8226 = assay: Test was to evaluate selectivity against individual tumor cell line Leukemia (RPMI-8226); type: functional; conditions: Homo sapiens
SK-MEL-5 [2] = assay: est was to evaluate selectivity against individual tumor cell line Melanoma (SK-MEL-5); type: functional; conditions: Homo sapiens
M19-MEL [3] = assay: est was to evaluate selectivity against individual tumor cell line Melanoma (M19-MEL); type: functional; conditions: Homo sapiens
SF-268 = assay: Test was to evaluate selectivity against individual tumor cell line CNS cancer (SF-268); type: functional; conditions: Homo sapiens
Malme-3M [4] = assay: est was to evaluate selectivity against individual tumor cell line Melanoma (MALME-3M); type: functional; conditions: Homo sapiens
Human betaherpesvirus 5 = assay: In vitro antiviral activity against Human cytomegalovirus (HCMV) was determined; type: functional, organism-based
CCRF-CEM [5] = assay: Test was to evaluate selectivity against individual tumor cell line Leukemia (CCRF-CEM); type: functional; conditions: Homo sapiens
CCRF-CEM [6] = assay: Inhibitory concentration for spectrum antiviral activity against herpes viruses; type: functional, cell-based; conditions: Homo sapiens
Human alphaherpesvirus 3 = assay: In vitro antiviral activity against Varicella zoster virus (VZV) was determined; type: functional, organism-based
Tumor Cell line = assay: Test was to evaluate selectivity against individual tumor cell lines; NS= No selectivity; type: functional, cell-based; conditions: Homo sapiens
DMS-114 = assay: Test was to evaluate selectivity against individual tumor cell lines Small cell lung cancer (DMS114); type: functional; conditions: Homo sapiens
CAKI-1 = assay: Test was to evaluate selectivity against individual tumor cell lines Renal cancer (CAKI-1); type: functional; conditions: Homo sapiens
M19-MEL [7] = assay: Test was to evaluate selectivity against individual tumor cell lines Melanoma (M19-MEL); type: functional; conditions: Homo sapiens
SK-MEL-5 [8] = assay: Test was to evaluate selectivity against individual tumor cell lines Melanoma (SK-MEL-5); type: functional; conditions: Homo sapiens
Malme-3M [9] = assay: Test was to evaluate selectivity against individual tumor cell lines Melanoma (MALME-3M); type: functional; conditions: Homo sapiens

Which EC50 (Human gammaherpesvirus 4) does the source give for `Nc1nc2c(ncn2COCCO)c(=O)[nH]1` [ACYCLOVIR] here?
Its EC50 is 3.96 µM.

What about the EC50 (Human alphaherpesvirus 1) of the same compound?
Its EC50 is 3.08 µM.

And the EC50 (Human alphaherpesvirus 2)?
The EC50 was 6.16 µM.

And the IC50 (CCRF-CEM [1])?
The IC50 was greater than 440 µM.

How did the EC50 (Human alphaherpesvirus 1) turn out when `O=c1[nH]c(=O)n([C@H]2C[C@H](O)[C@@H](CO)O2)cc1Cl` [CHLORODEOXYURIDINE] was run?
Its EC50 is 15 µM.

`[N-]=[N+]=NC1C(Cl)C(=O)NC(=O)N1[C@H]1C[C@H](O)[C@@H](CO)O1` (some centres undefined) was tested. Which GI50 (NCI-H522) did it give?
The GI50 was 5.37 µM.

And the EC50 (Human gammaherpesvirus 4)?
Its EC50 is 9.8 µM.

What about the EC50 (Human alphaherpesvirus 1) of the same compound?
The EC50 was 0.33 µM.

And the GI50 (RPMI-8226)?
Its GI50 is 72.4 µM.

What about the GI50 (SK-MEL-5 [2]) of the same compound?
Its GI50 is 12.3 µM.

What about the GI50 (M19-MEL [3]) of the same compound?
The GI50 was 52.4 µM.

And the GI50 (SF-268)?
Its GI50 is 93.3 µM.

What about the GI50 (Malme-3M [4]) of the same compound?
Its GI50 is 13.1 µM.

What about the EC50 (Human betaherpesvirus 5) of the same compound?
Its EC50 is 28.9 µM.

And the GI50 (CCRF-CEM [5])?
Its GI50 is 26.3 µM.

And the EC50 (Human alphaherpesvirus 2)?
The EC50 was 1.6 µM.

And the IC50 (CCRF-CEM [6])?
Its IC50 is 54.6 µM.

What about the IC50 (CCRF-CEM [1]) of the same compound?
The IC50 was greater than 327 µM.

What does the source list for `CC1(Br)C(=O)NC(=O)N([C@H]2C[C@H](O)[C@@H](CO)O2)C1N=[N+]=[N-]` (some centres undefined)?
EC50 (Human alphaherpesvirus 3): 104 µM; EC50 (Human gammaherpesvirus 4): 16 µM; EC50 (Human alphaherpesvirus 1): > 274 µM; EC50 (Human betaherpesvirus 5): 15 µM; EC50 (Human alphaherpesvirus 2): > 274 µM; IC50 (CCRF-CEM [6]): 143 µM; Activity (Tumor Cell line): inactive; IC50 (CCRF-CEM [1]): 73 µM

Which results are given for `Nc1nc2c(ncn2COC(CO)CO)c(=O)[nH]1` [GANCICLOVIR]?
EC50 (Human betaherpesvirus 5): 0.78 µM; IC50 (CCRF-CEM [1]): > 390 µM

`CC1(Cl)C(=O)NC(=O)N([C@H]2C[C@H](O)[C@@H](CO)O2)C1N=[N+]=[N-]` (some centres undefined) was tested. Which EC50 (Human gammaherpesvirus 4) did it give?
Its EC50 is greater than 12.5 µM.

And the EC50 (Human alphaherpesvirus 1)?
Its EC50 is greater than 313 µM.

And the EC50 (Human betaherpesvirus 5)?
The EC50 was greater than 50 µM.

And the EC50 (Human alphaherpesvirus 2)?
Its EC50 is greater than 313 µM.

What about the IC50 (CCRF-CEM [6]) of the same compound?
The IC50 was 135 µM.

What about the Activity (Tumor Cell line) of the same compound?
The Activity was “inactive”.

What about the IC50 (CCRF-CEM [1]) of the same compound?
Its IC50 is 113 µM.

`[N-]=[N+]=NC1C(Br)C(=O)NC(=O)N1[C@H]1C[C@H](O)[C@@H](CO)O1` (some centres undefined) was tested. Which GI50 (DMS-114) did it give?
The GI50 was 90.9 µM.

What about the GI50 (CAKI-1) of the same compound?
The GI50 was 66.3 µM.

What about the EC50 (Human alphaherpesvirus 3) of the same compound?
The EC50 was 91.4 µM.

And the GI50 (M19-MEL [7])?
Its GI50 is 91.5 µM.

And the EC50 (Human gammaherpesvirus 4)?
The EC50 was 46 µM.

And the EC50 (Human alphaherpesvirus 1)?
The EC50 was 8.28 µM.

What about the GI50 (RPMI-8226) of the same compound?
The GI50 was 19.6 µM.

And the EC50 (Human betaherpesvirus 5)?
The EC50 was 11.4 µM.

And the GI50 (CCRF-CEM [5])?
The GI50 was 38 µM.

What about the EC50 (Human alphaherpesvirus 2) of the same compound?
The EC50 was 3.42 µM.

What about the GI50 (SK-MEL-5 [8]) of the same compound?
Its GI50 is 42.2 µM.

What about the IC50 (CCRF-CEM [6]) of the same compound?
Its IC50 is 7.4 µM.

And the GI50 (Malme-3M [9])?
Its GI50 is 15.5 µM.

What about the IC50 (CCRF-CEM [1]) of the same compound?
Its IC50 is 127 µM.
